According to US12558348B2, “Bioactive phytochemicals” (Phytoquest Limited, priority 2019, dated 2026):

Assays:
[1] = tested on: sialidase (including NanH from T. forsythia); test: Sialidase assay with methylumbelliferyl-N-acetylneuraminic acid; type: biochemical
Procedure: Sialidase assays used 2.8 mM and 0.28 mM inhibitor (or water without inhibitor) and 2.5 nM sialidase (including NanH from T. forsythia) incubated in the presence of 0.1 mM methylumbelliferyl-N-acetyineuraminic acid, pH 7.2 in 20 mM sodium phosphate buffer. Reactions were stopped at 30 seconds and 60 seconds via addition of pH 10.5 60 mM sodium carbonate buffer. Release of fluorogenic methylumbelliferone (MU) was quantified by measuring fluorescence emission at 450 nm, excitation 350 nm. Percentage sialidase activity was expressed as the change in fluorescence between 30 seconds and 60 seconds compared to that of a reaction without inhibitor. Reactions were carried out in triplicate.

TNF-α = test: Production of TNF-α by human monocytic cell line THP-1; type: cell-based; conditions: Homo sapiens, THP-1
Procedure: THP-1 cells are commercially available. Cultured cells can be placed in RPMI complete medium in microtitre plates (e.g. […] in 96 well plates) and after 24 hrs incubation, PMA (10 ng/mi) added to 96 well plate to differentiate THP-1 cells and to determine the effects on TNF-α and IL-10 production. The cells should be pre-treated with cucumber extract at, for example, 200 μg/ml to 25 μg/ml followed by 2 hr LPS (100 ng/ml) stimulation. Post incubation, the cell supernatant is aspirated from each of the wells into sterile micro centrifuge tubes and centrifuged at 1000 rpm for 2-3 mins to settle any cells if present. The cell supernatant is then used for evaluation of presence of TNF-α or IL-10 using ELISA. Sandwich ELISA plates coated with suitable antibody are widely available (e.g. R&D Systems, USA).
A second study indicated even greater activity for idoBR1 in human blood (significant at 0.01 μM) with pre-incubation. […] The data clearly indicate that idoBR1 can inhibit the production of TNF-α in human blood. Thus, it appears that it may be a potent anti-inflammatory agent. It also appears that it may be acting via a novel mechanism distinct from the steroid receptor pathways.

phosphorylated p38 = test: Western blot of phosphorylated p38 in LPS-stimulated THP-1 cells; type: cell-based, human; conditions: vs LPS = 1.00
Procedure: THP-1 cells were cultured in RPMI media supplemented with mercaptoethanol & glutamine to get 80% confluence in culture flasks, then they were aspirated and centrifuged at 1500 rpm for 5 mins. The cell pellet was then resuspended in 1 ml of RPMI complete media and counted conventionally using a hemocytometer. The cells (5×106) were incubated with PMA (10 ng/ml) in separate dishes to differentiate THP-1 cells. To determine the protein expression p38 & p42/44, THP-1 cells were pre-treated for 1 hr with idoBR1-100 μg/ml & 50 μg/ml and cucumber extract (Q-actin batch no. B17CF001)—200 μg/ml & 100 μg/ml, followed by 2 hr LPS (1 μg/ml) stimulation. Post incubation, the cells were harvested and whole protein was isolated.
Cell pellets were lysed, and the protein concentration was determined using the Bio-Rad protein determination assay (Bio-Rad). Total cell proteins were subjected to 8% polyacrylamide SDS gel electrophoresis followed by transfer onto polyvinylidene difluoride membranes (Thermoscientific). The membranes were probed with either mouse anti-phospho-p38 mAb (Thermoscientific) or mouse anti-phospho-p42/44 mAb (Thermoscientific), followed by horseradish peroxidase-conjugated goat anti-mouse polyclonal antibodies (Thermoscientific). All immunoblots were visualized by ECL (Amersham Biosciences).

[2] = Oral availability: idoBR1 in urine after eating cucumbers (GC-MS); type: in vivo, human; conditions: for excretion of idoBR1 in urine: volunteer, roughly 13 mg consumed in cucumbers
Procedure: Parisien pickling cucumbers (seeds purchased from Lidl 2013) were grown organically and three eaten at midday by each of one volunteer and one volunteer. […] The volunteers ate no Cucurbitaceae food for 15 hours prior to the experiment. Urine samples pre-consumption were collected over 3 hours as t=0 and then samples collected for 9 hours for the […] and 15 hours for the person. The 30 g cucumber sample was homogenised in 50% ethanol (aq) and after 15 hours extraction it was filtered and the idoBR1 fraction bound to cation exchange resin IR120 in the H+ form. After washing the column with water, the material displaced with 2M ammonia solution was dried (52.3 mg) and analysed by GC-MS after trimethylsilylation using Pierce TriSil. The remaining 51 mg of material then had 0.2 mg of castanospermine added for comparative quantification purposes. The entire urine samples were similarly treated using cation exchange resin except the material displaced by ammonia solution was run a second time through the same cation exchange resin (now in the ammonium form) to reduce strong bases (which will bind to IR120 in the ammonium form) and only the unretained material was kept. The urine idoBR1 fractions were dried and made up to 20 ml in water. 500 ul of each was sampled and 0.025 mg of castanospermine added.
This was carried out on a Perkin Elmer Turbomass Gold GCMS. The spectrum of the major peak at 10.33 mins matched the GCMS spectrum of authentic idoBR1, 900288 PhytoQuest Ltd, UK). The relative response factor was calculated between authentic BR1 (900125, PhytoQuest Ltd) and castanospermine is 1:2. Assuming the same response factor, the amount of idoBR1 was estimated as 1.5 mg in the 30 g sample which means that the volunteers consumed roughly 260/30×1 5 mg=13 mg of idoBR1.

O=C(O)[C@@H]1NC[C@H](O)[C@@H](O)[C@@H]1O [idoBR1, (2R,3R,4R,5S)-3,4,5-trihydroxypiperidine-2-carboxylic acid]
inhibition of the sialidase ([1]; 0.28 mM inhibitor): 42% | inhibition of the sialidase ([1]; 2.8 mM inhibitor): 36% | inhibition at 10 µM (TNF-α; 10 μM): > 50% | IC50 (TNF-α; 48 hr preincubation, read-out: IC50 for inhibition of the production of TNF-α by THP-1 cells): 27 nM | Relative expression of p38 (phosphorylated p38; 50 μg/ml): 0.88 | Relative expression of p38 (phosphorylated p38; 100 μg/ml): 0.80 | conjugation in the urine analysis ([2]; human urine): No obvious conjugation | oral availability ([2]; human, eaten cucumber): available orally | excretion of idoBR1 in urine ([2]; after 15 hours): approximately 2.4 mg | excretion of idoBR1 in urine ([2]; samples collected for 9 hours): approximately 2.1 mg
